# Experimental data: ChEMBL document CHEMBL1201862, “PubChem BioAssay data set” (2004)
# Activity calls are given as the source filed them.
# Tests used:
# INS1 = assay: INS-1E survival protection against cytokine death – cell-based, luminescence, retest, dose response (AID 449756); assay type: functional; details: Rattus norvegicus;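 further: cell death triggered by IL-1 beta plus TNF-alpha plus IFN-gamma mixture; protective hits raise ATP signal compared with cytokine alone wells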
# [1] = reduction of Shn3 3'UTR-driven luciferase in osteoblasts – cell-based, Clone20 osteoblasts, firefly luciferase, cherry-picked, dose response (AID 624132); assay type: functional;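 further: firefly luciferase luminescence from reporter carrying the Shn3 3'UTR in osteoblasts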
# [2] = loss of viability in HepG2 cells – cell-based, CellTiter-Glo, cherry-picked, cytotoxicity control for Shn3 inhibitor project, dose response (AID 624134); assay type: functional
# Protein skinhead-1 = target: T1, Protein skinhead-1 (Caenorhabditis elegans, UniProt P34707); assay type: functional
# T1 sequence (P34707 whole entry): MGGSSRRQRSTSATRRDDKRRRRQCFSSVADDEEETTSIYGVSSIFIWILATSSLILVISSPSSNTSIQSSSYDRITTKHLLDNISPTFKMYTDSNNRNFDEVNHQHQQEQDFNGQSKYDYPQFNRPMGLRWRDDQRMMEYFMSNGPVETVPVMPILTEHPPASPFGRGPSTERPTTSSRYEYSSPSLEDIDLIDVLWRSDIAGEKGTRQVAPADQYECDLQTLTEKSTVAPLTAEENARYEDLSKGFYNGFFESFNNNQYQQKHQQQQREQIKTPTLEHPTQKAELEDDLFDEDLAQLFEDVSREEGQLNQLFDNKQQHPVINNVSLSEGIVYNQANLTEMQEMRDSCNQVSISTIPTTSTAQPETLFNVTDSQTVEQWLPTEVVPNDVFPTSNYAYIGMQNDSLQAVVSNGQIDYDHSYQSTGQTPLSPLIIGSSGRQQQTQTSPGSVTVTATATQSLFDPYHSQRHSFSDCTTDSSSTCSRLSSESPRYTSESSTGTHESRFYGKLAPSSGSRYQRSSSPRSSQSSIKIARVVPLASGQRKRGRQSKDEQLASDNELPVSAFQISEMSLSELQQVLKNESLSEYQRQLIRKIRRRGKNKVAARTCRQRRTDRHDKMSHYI
# [3] = target: T2, Corticotropin-releasing factor receptor 2/Corticotropin-releasing factor-binding protein (Homo sapiens, UniProt P24387+Q13324); assay: Dose Response confirmation of uHTS hits for small molecule antagonists of the CRF-binding protein and CRF-R2 receptor complex.; assay type: functional; details: read-out: IC50_Mean
# T2 sequence (Q13324 whole entry): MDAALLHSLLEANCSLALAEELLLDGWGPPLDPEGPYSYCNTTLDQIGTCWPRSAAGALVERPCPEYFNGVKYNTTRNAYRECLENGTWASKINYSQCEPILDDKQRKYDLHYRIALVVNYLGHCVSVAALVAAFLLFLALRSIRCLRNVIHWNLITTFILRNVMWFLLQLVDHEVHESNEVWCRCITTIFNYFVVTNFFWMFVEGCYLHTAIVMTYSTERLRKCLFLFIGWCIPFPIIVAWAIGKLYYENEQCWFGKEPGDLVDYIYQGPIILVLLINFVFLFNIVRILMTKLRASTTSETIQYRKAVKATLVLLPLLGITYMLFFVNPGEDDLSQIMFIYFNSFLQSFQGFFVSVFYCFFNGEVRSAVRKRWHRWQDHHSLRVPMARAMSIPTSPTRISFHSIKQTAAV
# T2 sequence (P24387 whole entry): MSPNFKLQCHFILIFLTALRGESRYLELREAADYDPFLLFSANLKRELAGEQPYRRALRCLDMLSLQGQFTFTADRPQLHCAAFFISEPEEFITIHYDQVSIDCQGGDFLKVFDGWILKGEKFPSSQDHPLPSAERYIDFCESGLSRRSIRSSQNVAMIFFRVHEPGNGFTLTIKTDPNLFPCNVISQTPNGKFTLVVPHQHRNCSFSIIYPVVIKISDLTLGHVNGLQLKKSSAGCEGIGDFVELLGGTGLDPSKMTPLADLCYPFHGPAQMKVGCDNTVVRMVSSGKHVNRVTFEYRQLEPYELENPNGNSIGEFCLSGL
# [4] = target: T2, Corticotropin-releasing factor receptor 2/Corticotropin-releasing factor-binding protein; assay: activators of CRF receptor 2 with binding protein – uHTS hits, confirmation (AID 602473); assay type: functional; details: read-out: EC50_Mean
# [5] = microbe, parasite or virus in culture; assay type: functional; details: Mycobacterium tuberculosis
# [6] = target: Luciferin 4-monooxygenase (Photinus pyralis, UniProt P08659); assay: inhibition of purified Photinus pyralis luciferase – biochemical, luminescence, dose response (AID 1891)
# [7] = Luminescence Cell-Based Dose Confirmation HTS to Identify Inhibitors of Platelet Dense Granule Release. [Related pubchem assays: 1663 (Primary HTS), 1678 (Summary of Project)]; assay type: functional
# [8] = Luminescence Cell-Based Dose Confirmation HTS to Identify Activators of 5'UTR Stem-Loop Driven Alpha-Synuclein mRNA Translation in H4 Neuroglioblastoma Cells. [Related pubchem assays: 1829 (Project Summary), 1814 (Primary HTS)]; assay type: functional
# H4 = assay: Luminescence Cell-Based Dose Response HTS to Identify Activators of 5'UTR Stem-Loop Driven Prion Protein mRNA Translation in H4 Neuroglioblastoma Cells. [Related pubchem assays: 1829 (Project Summary), 1814 (Primary HTS)]; assay type: functional; details: Homo sapiens
# [9] = Trypanosoma cruzi growth suppression in host cells – NIH3T3 host cells, beta-gal luminescence, confirmation (AID 2044); assay type: functional, cell-based;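 further: intracellular parasites grown in NIH/3T3 mouse fibroblasts as host cells; luminescent beta-galactosidase reporter signal from transgenic T. cruzi replicating inside host cells; inhibitors lower the luminescence signal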
# [10] = NIH3T3 cell viability loss – ATP luminescence, mouse fibroblasts, counter-screen, dose response (AID 2010); assay type: functional, cell-based;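 further: cells exposed to compound for about 90 hours before reading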
# [11] = viability of uninfected HEp-2 cells – cell-based, HTS, cytotoxicity control for RSV inhibitor project, dose response (AID 2410); assay type: functional; details: human respiratory syncytial virus
# [12] = target: FAD-linked sulfhydryl oxidase ALR (Homo sapiens, UniProt P55789); assay: ALR-catalysed DTT oxidation blockers – biochemical, H2O2 detection, luminescence, cherry-pick, dose response (AID 493248)
# [13] = target: T3, Rac GTPase-activating protein 1 (Homo sapiens, UniProt Q9H0H5); assay: blockers of MgcRacGAP-driven Rac1 GTP hydrolysis – biochemical, ADP Hunter fluorescence, primary and confirmatory, confirmation (AID 624330); assay type: functional
# T3 sequence (Q9H0H5 whole entry): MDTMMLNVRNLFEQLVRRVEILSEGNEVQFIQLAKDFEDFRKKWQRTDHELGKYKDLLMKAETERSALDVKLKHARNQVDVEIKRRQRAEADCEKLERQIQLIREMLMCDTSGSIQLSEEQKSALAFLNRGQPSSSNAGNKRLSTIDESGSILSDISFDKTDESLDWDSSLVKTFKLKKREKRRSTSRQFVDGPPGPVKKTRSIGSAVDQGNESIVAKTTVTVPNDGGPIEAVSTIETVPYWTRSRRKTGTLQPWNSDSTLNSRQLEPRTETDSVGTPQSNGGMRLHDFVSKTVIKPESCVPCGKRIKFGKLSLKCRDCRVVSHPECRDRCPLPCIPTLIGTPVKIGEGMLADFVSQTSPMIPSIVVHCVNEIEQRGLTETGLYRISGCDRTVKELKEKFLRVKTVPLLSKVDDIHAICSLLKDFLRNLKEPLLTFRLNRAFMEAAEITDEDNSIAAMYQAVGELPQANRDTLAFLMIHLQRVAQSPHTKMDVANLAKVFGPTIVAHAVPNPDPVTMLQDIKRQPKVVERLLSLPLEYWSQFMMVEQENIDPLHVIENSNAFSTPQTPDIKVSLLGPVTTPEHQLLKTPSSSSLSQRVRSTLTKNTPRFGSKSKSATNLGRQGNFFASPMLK
# Luciferin 4-monooxygenase, sequence (P08659 whole entry): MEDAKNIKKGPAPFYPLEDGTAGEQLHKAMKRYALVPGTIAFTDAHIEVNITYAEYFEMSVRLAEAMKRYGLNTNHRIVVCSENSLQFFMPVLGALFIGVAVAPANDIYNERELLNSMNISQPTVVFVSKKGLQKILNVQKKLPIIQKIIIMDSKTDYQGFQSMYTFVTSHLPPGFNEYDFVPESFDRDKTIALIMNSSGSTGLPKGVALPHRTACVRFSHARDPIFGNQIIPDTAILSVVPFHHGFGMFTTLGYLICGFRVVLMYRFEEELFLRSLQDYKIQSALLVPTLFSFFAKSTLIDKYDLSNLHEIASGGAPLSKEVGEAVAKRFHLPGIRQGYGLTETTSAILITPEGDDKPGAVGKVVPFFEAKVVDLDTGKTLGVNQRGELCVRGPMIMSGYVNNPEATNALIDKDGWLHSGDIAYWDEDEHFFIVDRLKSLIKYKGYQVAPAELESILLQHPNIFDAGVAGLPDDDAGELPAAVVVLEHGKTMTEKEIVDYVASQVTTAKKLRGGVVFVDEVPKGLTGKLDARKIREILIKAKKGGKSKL
# FAD-linked sulfhydryl oxidase ALR, sequence (P55789 whole entry): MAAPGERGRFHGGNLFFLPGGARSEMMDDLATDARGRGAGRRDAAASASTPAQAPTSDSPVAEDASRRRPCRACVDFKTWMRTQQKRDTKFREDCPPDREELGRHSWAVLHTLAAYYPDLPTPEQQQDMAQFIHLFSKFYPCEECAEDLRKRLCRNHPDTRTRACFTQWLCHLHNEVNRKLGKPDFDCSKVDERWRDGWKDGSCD
compound,measurement,setting,value
CN(C)c1ccc(/C=C/c2ccc3ccccc3n2)cc1,AC50,INS1,3.17 µM (active)
same,AC50,[1],1.33 µM (active)
same,AC50,[2],15.9 µM (active)
same,IC50,Protein skinhead-1,> 100 µM (inactive)
CC1CN(S(=O)(=O)c2cccc(C(=O)OCC(=O)Nc3ccc4c(c3)OCO4)c2)CC(C)O1 (stereo unspecified),IC50,Protein skinhead-1,> 100 µM (inactive)
O=C(Nc1nccs1)c1ccc(-c2ccc(F)cc2)o1,IC50,Protein skinhead-1,> 100 µM (inactive)
CCOC(=O)c1c(C)cc(C)n2c1nc1ccccc12,IC50,Protein skinhead-1,> 100 µM (inactive)
CCOc1ccc(NC(=O)[C@@H](NC(=O)c2ccccc2)[C@@H](C)CC)cc1,IC50,[3],> 47.1 µM (inactive)
same,EC50,[4],> 53 µM (inactive)
Cc1cccc(C)c1OCC(O)Cn1nnc2ccccc21 (stereo unspecified),IC50,[3],> 47.1 µM (inactive)
same,EC50,[4],> 53 µM (inactive)
Cc1cc(C)c2oc(-c3ccc(C)c(NC(=S)NC(=O)/C=C/c4ccco4)c3)nc2c1,CC50,[5],> 40 µM (active)
CCN(CC)CCOC(=O)c1ccc(NC(=O)CCCN2C(=O)/C(=C\c3cccs3)SC2=S)cc1,IC50,Protein skinhead-1,> 100 µM (inactive)
Cc1onc(-c2ccccc2Cl)c1C(=O)Nc1ccc(Br)cc1,EC50,[6],> 112 µM (not active)
same,EC50,[7],> 112 µM (not active)
COC(=O)c1sc(NC(=O)c2ccc(C)o2)nc1C,EC50,[6],5.6 µM (active)
same,EC50,[7],> 112 µM (not active)
CCOC(=O)c1c(-c2cccs2)csc1NC(=O)CN1CC(C)OC(C)C1 (stereo unspecified),IC50,Protein skinhead-1,> 100 µM (inactive)
O=C(C[C@@H]1C/C=C\C[C@H](NC(=O)OCC2c3ccccc3-c3ccccc32)C(=O)OC[C@H]2CCCN2C1=O)N[C@@H](CO)Cc1ccccc1,CC50,[5],> 40 µM (active)
CC(C)C(NS(=O)(=O)c1ccc2c(c1)oc(=O)n2C)C(=O)N1CCN(C2CCCCC2)CC1 (stereo unspecified),IC50,[3],> 47.1 µM (inactive)
same,EC50,[4],> 53 µM (inactive)
N#C/C(=C\c1ccco1)c1nc2ccccc2s1,IC50,Protein skinhead-1,> 100 µM (inactive)
O=c1oc(-c2ccc([N+](=O)[O-])cc2)nc2ccc(O)cc12,EC50,[6],0.995 µM (active)
same,EC50,[7],1.72 µM (active)
O=c1c2ccccc2nnn1Cc1ccc(Br)cc1,IC50,Protein skinhead-1,87.8 µM (inactive)
Cc1ccc(S(=O)(=O)c2cc3ccccc3oc2=O)cc1,EC50,[8],> 120 µM (not active)
same,EC50,H4,> 120 µM (not active)
Cc1cccc(NS(=O)(=O)c2cccc(C(=O)N3CCN(c4ccccn4)CC3)c2)c1,IC50,[3],> 47.1 µM (inactive)
same,EC50,[4],> 53 µM (inactive)
CCOc1ccc(C2c3[nH]c4ccccc4c3C[C@H]3C(=O)N(C4CCN(Cc5ccccc5)CC4)CC(=O)N23)cc1OC (stereo partly specified),CC50,[5],38.9 µM (active)
CC(C)c1nc2scc(-c3ccc(Cl)cc3)c2c(=O)n1N,CC50,[5],> 40 µM (active)
O=C(CCCn1cc([N+](=O)[O-])cn1)NC1CCCCCC1,EC50,[6],> 112 µM (not active)
same,EC50,[7],> 112 µM (not active)
CCC1OC(=O)C(C)C(OC2C[C@@](C)(OC)C(O)C(C)O2)C(C)C(O[C@@H]2OC(C)CC(N(C)C)C2O)[C@](C)(O)CC(C)C(=NOCOCCOC)C(C)C(O)[C@]1(C)O (stereo partly specified),IC50,[3],> 47.1 µM (inactive)
same,EC50,[4],> 53 µM (inactive)
COC(=O)C1=C(C)N(Cc2ccccc2)C(=O)N[C@H]1CCc1ccccc1,IC50,[3],> 47.1 µM (inactive)
same,EC50,[4],> 53 µM (inactive)
COc1ccccc1C1CCN(Cc2ccc3ccccc3c2)CC1,EC50,[9],1.2 µM (active)
same,CC50,[5],> 40 µM (active)
same,EC50,[10],> 60 µM (not active)
COc1ccccc1-n1c(SCC(=O)Nc2cc(C)on2)nc2c(c1=O)SCC2,AC50,[2],> 70 µM (inactive)
CC(C)Cc1nc2oc3c(N4CCN(CCO)CC4)ncnc3c2c2c1CCCC2,CC50,[5],33.8 µM (active)
CCN(CC(=O)Nc1sc2c(c1C#N)CCCC2)CC(=O)NC1CCS(=O)(=O)C1 (stereo unspecified),EC50,[6],> 112 µM (not active)
same,EC50,[7],> 112 µM (not active)
COn1c(-c2ccc(Cl)cc2)nc2ccc(Cl)cc21,CC50,[11],35.3 µM (active)
same,IC50,Protein skinhead-1,10.8 µM (active)
O=C(O)CCCN1C(=O)c2ccccc2Sc2ncccc21,IC50,Protein skinhead-1,> 100 µM (inactive)
CC(=O)Nc1ccc(S(=O)(=O)N(C)CC(=O)NNC(=O)c2cccs2)cc1,IC50,Protein skinhead-1,> 100 µM (inactive)
CC(C)c1ccc(Oc2cccc3c2S(=O)(=O)N(C2CCCC2)CC(COCc2ccccc2)O3)cc1 (stereo unspecified),AC50,[1],15.5 µM (active)
same,AC50,[2],> 70 µM (inactive)
COc1ccc(NC(=O)c2cc3ccccc3o/c2=N\NS(=O)(=O)c2ccc(C)cc2)cc1,EC50,H4,0.575 µM (active)
NC(=O)c1ccccc1N/C=C/C(=O)c1ccc(Cl)cc1Cl,EC50,[6],1.1 µM (active)
same,EC50,[7],8.86 µM (active)
O=c1/c(=C/c2ccc(O)cc2)sc2n1CCCN=2,AC50,[12],1.16 µM (active)
same,IC50,[13],20.1 µM (active)
CCNc1nc(NCC)nc(N/N=C/c2ccc([N+](=O)[O-])o2)n1,CC50,[5],39 µM (active)
